The NIST ThermoML archive (doi:10.1021/je500498m)
± gives the expanded uncertainty stated by the source.

Experiment: xn = mol fraction of the nth substance listed
Details: for speed of sound: 100 kPa, Sing-around technique in a fixed-path interferometer; for speed of sound / viscosity / mass density: Liquid; for viscosity / mass density: 101 kPa; for viscosity: Falling or rolling sphere viscometry; for mass density: Vibrating tube method; for surface tension liquid-gas: 294.4 K, Pendant drop shape

CCCCCCCCCCCCCCCC [hexadecane] + CCc1ccccc1
Details	mass density [kg/m3]	speed of sound [m/s]	viscosity [mPa·s]
293.15 K, x2 = 0	773.49 ± 0.33	1357.3 ± 0.9	3.44 ± 0.03
293.15 K, x2 = 0.1007	777.15 ± 0.33	1353.4 ± 0.9	3.01 ± 0.03
293.15 K, x2 = 0.2	781.37 ± 0.33	1349.4 ± 0.9	2.63 ± 0.02
293.15 K, x2 = 0.3002	786.28 ± 0.33	1345.2 ± 0.8	2.28 ± 0.02
293.15 K, x2 = 0.4013	792.08 ± 0.33	1340.7 ± 0.8	1.96 ± 0.02
293.15 K, x2 = 0.5002	798.81 ± 0.33	1336.7 ± 0.8	1.69 ± 0.02
293.15 K, x2 = 0.6001	806.86 ± 0.32	1333.1 ± 0.8	1.43 ± 0.02
293.15 K, x2 = 0.7002	816.95 ± 0.32	1330.4 ± 0.8	1.21 ± 0.01
293.15 K, x2 = 0.8001	829.46 ± 0.32	1329.3 ± 0.8	1.01 ± 0.01
293.15 K, x2 = 0.9	845.47 ± 0.32	1331.5 ± 0.7	0.83 ± 0.01
303.15 K, x2 = 0	766.55 ± 0.34	1320 ± 0.9	2.72 ± 0.02
303.15 K, x2 = 0.1007	770.16 ± 0.33	1316 ± 0.9	2.42 ± 0.02
303.15 K, x2 = 0.2	774.31 ± 0.33	1312 ± 0.9	2.14 ± 0.02
303.15 K, x2 = 0.3002	779.13 ± 0.33	1307.8 ± 0.8	1.88 ± 0.02
303.15 K, x2 = 0.4013	784.83 ± 0.33	1303.1 ± 0.8	1.64 ± 0.02
303.15 K, x2 = 0.5002	791.42 ± 0.33	1298.9 ± 0.8	1.42 ± 0.02
303.15 K, x2 = 0.6001	799.32 ± 0.32	1295 ± 0.8	1.23 ± 0.01
303.15 K, x2 = 0.7002	809.21 ± 0.32	1291.9 ± 0.8	1.05 ± 0.01
303.15 K, x2 = 0.8001	821.46 ± 0.32	1291.1 ± 0.7	0.88 ± 0.01
303.15 K, x2 = 0.9	837.13 ± 0.32	1291.3 ± 0.7	0.73 ± 0.01
313.15 K, x2 = 0	759.63 ± 0.34	1283.3 ± 0.9	–
313.15 K, x2 = 0.1007	763.17 ± 0.33	1279.2 ± 0.9	–
313.15 K, x2 = 0.2	767.24 ± 0.33	1275.1 ± 0.9	–
313.15 K, x2 = 0.3002	771.97 ± 0.33	1270.8 ± 0.8	–
313.15 K, x2 = 0.4013	777.56 ± 0.33	1266 ± 0.8	–
313.15 K, x2 = 0.5002	784.01 ± 0.33	1261.6 ± 0.8	–
313.15 K, x2 = 0.6001	791.75 ± 0.33	1257.4 ± 0.8	–
313.15 K, x2 = 0.7002	801.42 ± 0.32	1253.8 ± 0.7	–
313.15 K, x2 = 0.8001	813.41 ± 0.32	1251.3 ± 0.7	–
313.15 K, x2 = 0.9	828.73 ± 0.32	1251.6 ± 0.7	–
323.15 K, x2 = 0	752.71 ± 0.34	1247.3 ± 0.9	1.82 ± 0.02
323.15 K, x2 = 0.1007	756.18 ± 0.33	1243.2 ± 0.9	1.65 ± 0.02
323.15 K, x2 = 0.2	760.17 ± 0.33	1239 ± 0.8	1.49 ± 0.02
323.15 K, x2 = 0.3002	764.8 ± 0.33	1234.5 ± 0.8	1.34 ± 0.02
323.15 K, x2 = 0.4013	770.27 ± 0.33	1229.4 ± 0.8	1.19 ± 0.01
323.15 K, x2 = 0.5002	776.58 ± 0.33	1224.8 ± 0.8	1.05 ± 0.01
323.15 K, x2 = 0.6001	784.14 ± 0.33	1220.3 ± 0.8	0.92 ± 0.01
323.15 K, x2 = 0.7002	793.6 ± 0.32	1216.2 ± 0.7	0.8 ± 0.01
323.15 K, x2 = 0.8001	805.42 ± 0.32	1213.1 ± 0.7	0.68 ± 0.01
323.15 K, x2 = 0.9	820.29 ± 0.32	1212.5 ± 0.7	0.57 ± 0.01
333.15 K, x2 = 0	745.79 ± 0.34	1212 ± 0.9	1.53 ± 0.02
333.15 K, x2 = 0.1007	749.19 ± 0.34	1207.7 ± 0.9	1.4 ± 0.02
333.15 K, x2 = 0.2	753.09 ± 0.33	1203.4 ± 0.8	1.28 ± 0.02
333.15 K, x2 = 0.3002	757.62 ± 0.33	1198.8 ± 0.8	1.15 ± 0.01
333.15 K, x2 = 0.4013	762.96 ± 0.33	1193.6 ± 0.8	1.03 ± 0.01
333.15 K, x2 = 0.5002	769.13 ± 0.33	1188.6 ± 0.8	0.92 ± 0.01
333.15 K, x2 = 0.6001	776.51 ± 0.33	1183.8 ± 0.7	0.81 ± 0.01
333.15 K, x2 = 0.7002	785.74 ± 0.32	1179.2 ± 0.7	0.7 ± 0.01
333.15 K, x2 = 0.8001	797.18 ± 0.32	1175.5 ± 0.7	0.6 ± 0.01
333.15 K, x2 = 0.9	811.8 ± 0.32	1173.9 ± 0.7	0.52 ± 0.01
343.15 K, x2 = 0	738.9 ± 0.3	–	1.31 ± 0.02
343.15 K, x2 = 0.1007	742.2 ± 0.3	–	1.21 ± 0.01
343.15 K, x2 = 0.2	746 ± 0.3	–	1.1 ± 0.01
343.15 K, x2 = 0.3002	750.4 ± 0.3	–	1.01 ± 0.01
343.15 K, x2 = 0.4013	755.6 ± 0.3	–	0.9 ± 0.01
343.15 K, x2 = 0.5002	761.6 ± 0.3	–	0.81 ± 0.01
343.15 K, x2 = 0.6001	768.9 ± 0.3	–	0.71 ± 0.01
343.15 K, x2 = 0.7002	777.9 ± 0.3	–	0.62 ± 0.01
343.15 K, x2 = 0.8001	789 ± 0.3	–	0.54 ± 0.01
343.15 K, x2 = 0.9	803.3 ± 0.3	–	0.47 ± 0.01
353.15 K, x2 = 0	731.8 ± 0.3	–	1.13 ± 0.01
353.15 K, x2 = 0.1007	735 ± 0.3	–	1.05 ± 0.01
353.15 K, x2 = 0.2	738.7 ± 0.3	–	0.96 ± 0.01
353.15 K, x2 = 0.3002	743 ± 0.3	–	0.88 ± 0.01
353.15 K, x2 = 0.4013	748.1 ± 0.3	–	0.8 ± 0.01
353.15 K, x2 = 0.5002	754 ± 0.3	–	0.71 ± 0.01
353.15 K, x2 = 0.6001	761.1 ± 0.3	–	0.64 ± 0.01
353.15 K, x2 = 0.7002	769.8 ± 0.3	–	0.56 ± 0.01
353.15 K, x2 = 0.8001	780.7 ± 0.3	–	0.49 ± 0.01
353.15 K, x2 = 0.9	794.5 ± 0.3	–	0.43 ± 0.01
363.15 K, x2 = 0	724.7 ± 0.3	–	0.99 ± 0.01
363.15 K, x2 = 0.1007	727.8 ± 0.3	–	0.92 ± 0.01
363.15 K, x2 = 0.2	731.5 ± 0.3	–	0.85 ± 0.01
363.15 K, x2 = 0.3002	735.6 ± 0.3	–	0.78 ± 0.01
363.15 K, x2 = 0.4013	740.6 ± 0.3	–	0.7 ± 0.01
363.15 K, x2 = 0.5002	746.3 ± 0.3	–	0.63 ± 0.01
363.15 K, x2 = 0.6001	753.1 ± 0.3	–	0.58 ± 0.2
363.15 K, x2 = 0.7002	761.6 ± 0.3	–	0.51 ± 0.01
363.15 K, x2 = 0.8001	772.2 ± 0.3	–	0.45 ± 0.01
363.15 K, x2 = 0.9	785.6 ± 0.3	–	0.39 ± 0.01
373.15 K, x2 = 0	717.5 ± 0.3	–	0.87 ± 0.01
373.15 K, x2 = 0.1007	720.6 ± 0.3	–	0.82 ± 0.01
373.15 K, x2 = 0.2	724.1 ± 0.3	–	0.76 ± 0.01
373.15 K, x2 = 0.3002	728.1 ± 0.3	–	0.69 ± 0.01
373.15 K, x2 = 0.4013	732.9 ± 0.3	–	0.63 ± 0.01
373.15 K, x2 = 0.5002	738.4 ± 0.3	–	0.57 ± 0.01
373.15 K, x2 = 0.6001	745.1 ± 0.3	–	0.52 ± 0.01
373.15 K, x2 = 0.7002	753.3 ± 0.3	–	0.47 ± 0.01
373.15 K, x2 = 0.8001	763.6 ± 0.3	–	0.41 ± 0.01
373.15 K, x2 = 0.9	776.6 ± 0.3	–	0.36 ± 0.01

Details	surface tension liquid-gas [mN/m]
x2 = 0	27.3 ± 0.4
x2 = 0.2	27.4 ± 0.4
x2 = 0.4013	27.5 ± 0.4
x2 = 0.5002	27.5 ± 0.4
x2 = 0.6001	27.8 ± 0.4
x2 = 0.7002	28 ± 0.4
x2 = 0.8001	28.2 ± 0.4
x2 = 0.9	28.5 ± 0.4
